Key:
Test in all cases: relative viability (nuclei count vs DMSO), 5 days (fraction); higher = more cells survive
BEN = test system: BEN
Outline: (§1)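 Lung cancer cell lines were seeded in 1536-well plates and dosed by pin tool the next day, with either a single drug or a fixed anchor-drug dose combined with five library-drug doses (not always all listed) spaced in √10 steps. Five days later, one step fixed the cells and stained their nuclei (final 0.05% Triton X-100, 1% formaldehyde, 1 ug/ml Hoechst), and nuclei were counted on 4× images. Relative viability is the nuclei count in treated wells divided by the count in vehicle wells, and each value is the median of duplicate plates.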

CAL-12T = test system: CAL-12T
Outline: as §1

EKVX = test system: EKVX
Outline: as §1

HCC-15 = test system: HCC-15
Outline: as §1

HCC-366 = test system: HCC-366
Outline: as §1

HCC-44 = test system: HCC-44
Outline: as §1

LOU-NH91 = test system: LOU-NH91
Outline: as §1

NCI-H1355 = test system: NCI-H1355
Outline: as §1

NCI-H1395 = test system: NCI-H1395
Outline: as §1

NCI-H1437 = test system: NCI-H1437
Outline: as §1

NCI-H1650 = test system: NCI-H1650
Outline: as §1

NCI-H1651 = test system: NCI-H1651
Outline: as §1

NCI-H1734 = test system: NCI-H1734
Outline: as §1

NCI-H1755 = test system: NCI-H1755
Outline: as §1

NCI-H1975 = test system: NCI-H1975
Outline: as §1

NCI-H2023 = test system: NCI-H2023
Outline: as §1

NCI-H2085 = test system: NCI-H2085
Outline: as §1

NCI-H441 = test system: NCI-H441
Outline: as §1

NCI-H460 = test system: NCI-H460
Outline: as §1

NCI-H838 = test system: NCI-H838
Outline: as §1

## Clc1ccc(Nc2nnc(Cc3ccncc3)c3ccccc23)cc1 [Vatalanib] + CC1(C)CCC(c2ccc(Cl)cc2)=C(CN2CCN(c3ccc(C(=O)NS(=O)(=O)c4ccc(N[C@H](CCN5CCOCC5)CSc5ccccc5)c(S(=O)(=O)C(F)(F)F)c4)cc3)CC2)C1 [Navitoclax] (partner 0.5 µM)
BEN; first compound 0.04 µM
  relative viability: 0.0773
BEN; first compound 0.1265 µM
  relative viability: 0.0662
BEN; first compound 0.4 µM
  relative viability: 0.0617
BEN; first compound 1.265 µM
  relative viability: 0.0622
BEN; first compound 4 µM
  relative viability: 0.0608
CAL-12T; first compound 0.04 µM
  relative viability: 1.17
CAL-12T; first compound 0.1265 µM
  relative viability: 1.2
CAL-12T; first compound 0.4 µM
  relative viability: 1.28
CAL-12T; first compound 1.265 µM
  relative viability: 1.15
CAL-12T; first compound 4 µM
  relative viability: 1.31
EKVX; first compound 0.04 µM
  relative viability: 0.924
EKVX; first compound 0.1265 µM
  relative viability: 0.928
EKVX; first compound 0.4 µM
  relative viability: 1
EKVX; first compound 1.265 µM
  relative viability: 0.839
EKVX; first compound 4 µM
  relative viability: 0.891
HCC-15; first compound 0.04 µM
  relative viability: 0.719
HCC-15; first compound 0.1265 µM
  relative viability: 0.713
HCC-15; first compound 0.4 µM
  relative viability: 0.767
HCC-15; first compound 1.265 µM
  relative viability: 0.737
HCC-15; first compound 4 µM
  relative viability: 0.654
HCC-366; first compound 0.04 µM
  relative viability: 1.09
HCC-366; first compound 0.1265 µM
  relative viability: 0.816
HCC-366; first compound 0.4 µM
  relative viability: 1.25
HCC-366; first compound 1.265 µM
  relative viability: 1.03
HCC-366; first compound 4 µM
  relative viability: 0.991
HCC-44; first compound 0.04 µM
  relative viability: 0.933
HCC-44; first compound 0.1265 µM
  relative viability: 0.916
HCC-44; first compound 0.4 µM
  relative viability: 0.93
HCC-44; first compound 1.265 µM
  relative viability: 0.915
HCC-44; first compound 4 µM
  relative viability: 0.919
LOU-NH91; first compound 0.04 µM
  relative viability: 0.703
LOU-NH91; first compound 0.1265 µM
  relative viability: 0.558
LOU-NH91; first compound 0.4 µM
  relative viability: 0.61
LOU-NH91; first compound 1.265 µM
  relative viability: 0.612
LOU-NH91; first compound 4 µM
  relative viability: 0.61
NCI-H1355; first compound 0.04 µM
  relative viability: 0.962
NCI-H1355; first compound 0.1265 µM
  relative viability: 0.927
NCI-H1355; first compound 0.4 µM
  relative viability: 1.01
NCI-H1355; first compound 1.265 µM
  relative viability: 0.875
NCI-H1355; first compound 4 µM
  relative viability: 0.917
NCI-H1395; first compound 0.04 µM
  relative viability: 1.17
NCI-H1395; first compound 0.1265 µM
  relative viability: 1.07
NCI-H1395; first compound 0.4 µM
  relative viability: 1.37
NCI-H1395; first compound 1.265 µM
  relative viability: 1.07
NCI-H1395; first compound 4 µM
  relative viability: 1.08
NCI-H1437; first compound 0.04 µM
  relative viability: 1.09
NCI-H1437; first compound 0.1265 µM
  relative viability: 1.09
NCI-H1437; first compound 0.4 µM
  relative viability: 1.12
NCI-H1437; first compound 1.265 µM
  relative viability: 1.13
NCI-H1437; first compound 4 µM
  relative viability: 1.15
NCI-H1650; first compound 0.04 µM
  relative viability: 1.32
NCI-H1650; first compound 0.1265 µM
  relative viability: 1.2
NCI-H1650; first compound 0.4 µM
  relative viability: 1.41
NCI-H1650; first compound 1.265 µM
  relative viability: 0.951
NCI-H1650; first compound 4 µM
  relative viability: 1.17
NCI-H1651; first compound 0.04 µM
  relative viability: 0.928
NCI-H1651; first compound 0.1265 µM
  relative viability: 1.09
NCI-H1651; first compound 0.4 µM
  relative viability: 1.11
NCI-H1651; first compound 1.265 µM
  relative viability: 1.02
NCI-H1651; first compound 4 µM
  relative viability: 1.08
NCI-H1734; first compound 0.04 µM
  relative viability: 0.921
NCI-H1734; first compound 0.1265 µM
  relative viability: 0.719
NCI-H1734; first compound 0.4 µM
  relative viability: 0.927
NCI-H1734; first compound 1.265 µM
  relative viability: 0.823
NCI-H1734; first compound 4 µM
  relative viability: 0.822
NCI-H1755; first compound 0.04 µM
  relative viability: 1.06
NCI-H1755; first compound 0.1265 µM
  relative viability: 0.972
NCI-H1755; first compound 0.4 µM
  relative viability: 1.03
NCI-H1755; first compound 1.265 µM
  relative viability: 0.821
NCI-H1755; first compound 4 µM
  relative viability: 0.993
NCI-H1975; first compound 0.04 µM
  relative viability: 1.09
NCI-H1975; first compound 0.1265 µM
  relative viability: 1
NCI-H1975; first compound 0.4 µM
  relative viability: 1.17
NCI-H1975; first compound 1.265 µM
  relative viability: 0.945
NCI-H1975; first compound 4 µM
  relative viability: 0.815
NCI-H2023; first compound 0.04 µM
  relative viability: 1
NCI-H2023; first compound 0.1265 µM
  relative viability: 1.02
NCI-H2023; first compound 0.4 µM
  relative viability: 1.08
NCI-H2023; first compound 1.265 µM
  relative viability: 0.892
NCI-H2023; first compound 4 µM
  relative viability: 0.982
NCI-H2085; first compound 0.04 µM
  relative viability: 1.12
NCI-H2085; first compound 0.1265 µM
  relative viability: 1.25
NCI-H2085; first compound 0.4 µM
  relative viability: 1.29
NCI-H2085; first compound 1.265 µM
  relative viability: 1.05
NCI-H2085; first compound 4 µM
  relative viability: 1.01
NCI-H441; first compound 0.04 µM
  relative viability: 0.886
NCI-H441; first compound 0.1265 µM
  relative viability: 0.685
NCI-H441; first compound 0.4 µM
  relative viability: 0.469
NCI-H441; first compound 1.265 µM
  relative viability: 0.755
NCI-H441; first compound 4 µM
  relative viability: 0.54
NCI-H460; first compound 0.04 µM
  relative viability: 1.17
NCI-H460; first compound 0.1265 µM
  relative viability: 1.09
NCI-H460; first compound 0.4 µM
  relative viability: 1.11
NCI-H460; first compound 1.265 µM
  relative viability: 1.04
NCI-H460; first compound 4 µM
  relative viability: 1.11
NCI-H838; first compound 0.04 µM
  relative viability: 1.08
NCI-H838; first compound 0.1265 µM
  relative viability: 1.11
NCI-H838; first compound 0.4 µM
  relative viability: 1.19
NCI-H838; first compound 1.265 µM
  relative viability: 1.07
NCI-H838; first compound 4 µM
  relative viability: 1.18
